pIC50: −log10 of the molar value.
Columns and labels:
[1] = Metabolic stability in rat liver microsomes assessed as compound remaining after 60 mins; format: ADME; settings: read-out: Stability
[2] = Metabolic stability in human liver microsomes assessed as compound remaining after 60 mins; format: ADME; settings: read-out: Stability
[3] = molecular target: cAMP and cAMP-inhibited cGMP 3',5'-cyclic phosphodiesterase 10A (Homo sapiens, UniProt Q9Y233); assay: Inhibition of human recombinant PDE10A using [3H]-cAMP/[3H]-cGMP as substrate after 30 mins by radiometric assay
Chain of cAMP and cAMP-inhibited cGMP 3',5'-cyclic phosphodiesterase 10A (Q9Y233 whole entry): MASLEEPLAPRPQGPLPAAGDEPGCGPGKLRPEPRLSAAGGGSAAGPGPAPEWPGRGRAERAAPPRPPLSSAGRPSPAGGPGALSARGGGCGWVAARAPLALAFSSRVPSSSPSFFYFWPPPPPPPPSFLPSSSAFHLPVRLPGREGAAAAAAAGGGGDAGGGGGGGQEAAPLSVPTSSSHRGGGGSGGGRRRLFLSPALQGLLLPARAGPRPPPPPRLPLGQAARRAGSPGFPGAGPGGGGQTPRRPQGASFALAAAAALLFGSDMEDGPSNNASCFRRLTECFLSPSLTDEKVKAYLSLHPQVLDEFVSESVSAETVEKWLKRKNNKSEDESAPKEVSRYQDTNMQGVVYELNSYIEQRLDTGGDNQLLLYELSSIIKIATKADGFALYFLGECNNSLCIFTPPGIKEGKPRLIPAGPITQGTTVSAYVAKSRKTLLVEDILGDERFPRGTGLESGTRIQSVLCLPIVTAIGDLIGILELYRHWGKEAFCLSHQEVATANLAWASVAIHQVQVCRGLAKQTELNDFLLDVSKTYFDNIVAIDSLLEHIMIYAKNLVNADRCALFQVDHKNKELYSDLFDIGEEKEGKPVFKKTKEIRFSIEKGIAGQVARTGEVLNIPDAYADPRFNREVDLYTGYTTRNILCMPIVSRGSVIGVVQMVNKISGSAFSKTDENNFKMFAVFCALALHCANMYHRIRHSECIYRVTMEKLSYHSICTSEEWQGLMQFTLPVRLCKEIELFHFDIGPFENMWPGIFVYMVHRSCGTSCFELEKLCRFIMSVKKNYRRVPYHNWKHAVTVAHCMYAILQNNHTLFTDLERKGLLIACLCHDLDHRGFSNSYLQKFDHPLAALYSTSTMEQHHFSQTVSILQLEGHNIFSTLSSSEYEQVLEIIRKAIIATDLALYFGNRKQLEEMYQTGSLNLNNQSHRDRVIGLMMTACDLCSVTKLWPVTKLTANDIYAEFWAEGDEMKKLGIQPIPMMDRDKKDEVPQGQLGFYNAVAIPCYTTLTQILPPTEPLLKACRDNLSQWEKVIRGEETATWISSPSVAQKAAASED

[4] = Ratio of drug level in brain to plasma in Sprague-Dawley rat at 10 mg/kg, po after 30 mins; format: ADME, organism-based; set-up: dose 10 mg/kg, route oral; settings: brain and plasma, read-out: BPR
[5] = Plasma concentration in Sprague-Dawley rat at 10 mg/kg, po after 30 mins; format: ADME, organism-based; set-up: dose 10 mg/kg, route oral
[6] = Drug uptake in Sprague-Dawley rat brain at 10 mg/kg, po after 30 mins; format: ADME, organism-based; set-up: dose 10 mg/kg, route oral; settings: read-out: Drug uptake
Homo sapiens [7] = species on record: Homo sapiens; assay: Selectivity ratio of IC50 for PDE11A (unknown origin) to IC50 for human recombinant PDE10A
Homo sapiens [8] = species on record: Homo sapiens; assay: Selectivity ratio of IC50 for PDE9A2 (unknown origin) to IC50 for human recombinant PDE10A
Homo sapiens [9] = species on record: Homo sapiens; assay: Selectivity ratio of IC50 for PDE8A (unknown origin) to IC50 for human recombinant PDE10A
Homo sapiens [10] = species on record: Homo sapiens; assay: Selectivity ratio of IC50 for PDE7A1 (unknown origin) to IC50 for human recombinant PDE10A
Homo sapiens [11] = species on record: Homo sapiens; assay: Selectivity ratio of IC50 for PDE5A (unknown origin) to IC50 for human recombinant PDE10A
Homo sapiens [12] = species on record: Homo sapiens; assay: Selectivity ratio of IC50 for PDE4D (unknown origin) to IC50 for human recombinant PDE10A
Homo sapiens [13] = species on record: Homo sapiens; assay: Selectivity ratio of IC50 for PDE3A (unknown origin) to IC50 for human recombinant PDE10A
Homo sapiens [14] = species on record: Homo sapiens; assay: Selectivity ratio of IC50 for PDE2A (unknown origin) to IC50 for human recombinant PDE10A
Homo sapiens [15] = species on record: Homo sapiens; assay: Selectivity ratio of IC50 for PDE1A (unknown origin) to IC50 for human recombinant PDE10A
[16] = molecular target: Dual 3',5'-cyclic-AMP and -GMP phosphodiesterase 11A (Homo sapiens) (UniProt Q9HCR9); assay: Inhibition of PDE11A (unknown origin) using [3H]-cAMP as substrate at 10 uM after 30 mins by radiometric assay
Chain of Dual 3',5'-cyclic-AMP and -GMP phosphodiesterase 11A (Homo sapiens) (Q9HCR9 whole entry, looked up): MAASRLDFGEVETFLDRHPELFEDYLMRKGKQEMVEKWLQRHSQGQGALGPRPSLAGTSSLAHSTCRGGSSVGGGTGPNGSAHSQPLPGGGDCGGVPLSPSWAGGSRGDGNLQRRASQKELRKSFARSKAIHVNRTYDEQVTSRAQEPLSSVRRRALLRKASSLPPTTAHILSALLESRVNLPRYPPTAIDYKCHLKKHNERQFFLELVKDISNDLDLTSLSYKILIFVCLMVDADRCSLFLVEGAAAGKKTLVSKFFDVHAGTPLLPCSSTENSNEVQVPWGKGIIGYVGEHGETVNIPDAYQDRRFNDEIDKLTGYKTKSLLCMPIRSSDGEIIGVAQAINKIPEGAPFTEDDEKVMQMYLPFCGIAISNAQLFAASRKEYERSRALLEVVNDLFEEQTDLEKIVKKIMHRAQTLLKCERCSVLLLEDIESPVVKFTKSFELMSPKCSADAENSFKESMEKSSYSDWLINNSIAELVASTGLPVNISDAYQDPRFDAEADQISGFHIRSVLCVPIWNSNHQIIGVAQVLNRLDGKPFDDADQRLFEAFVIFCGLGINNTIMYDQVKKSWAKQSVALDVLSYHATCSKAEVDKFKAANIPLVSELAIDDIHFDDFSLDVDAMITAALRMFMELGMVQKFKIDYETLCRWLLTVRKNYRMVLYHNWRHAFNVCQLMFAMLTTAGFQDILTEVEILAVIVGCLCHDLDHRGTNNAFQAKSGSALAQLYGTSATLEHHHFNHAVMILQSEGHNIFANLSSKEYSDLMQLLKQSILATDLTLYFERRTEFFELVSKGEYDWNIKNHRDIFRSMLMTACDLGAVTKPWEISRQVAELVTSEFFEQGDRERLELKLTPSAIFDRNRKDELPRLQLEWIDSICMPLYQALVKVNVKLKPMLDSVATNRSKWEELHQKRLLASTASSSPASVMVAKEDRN

[17] = molecular target: High affinity cGMP-specific 3',5'-cyclic phosphodiesterase 9A (Homo sapiens) (UniProt O76083); assay: Inhibition of PDE9A2 (unknown origin) using [3H]-cGMP as substrate at 10 uM after 30 mins by radiometric assay
Chain of High affinity cGMP-specific 3',5'-cyclic phosphodiesterase 9A (Homo sapiens) (O76083 whole entry): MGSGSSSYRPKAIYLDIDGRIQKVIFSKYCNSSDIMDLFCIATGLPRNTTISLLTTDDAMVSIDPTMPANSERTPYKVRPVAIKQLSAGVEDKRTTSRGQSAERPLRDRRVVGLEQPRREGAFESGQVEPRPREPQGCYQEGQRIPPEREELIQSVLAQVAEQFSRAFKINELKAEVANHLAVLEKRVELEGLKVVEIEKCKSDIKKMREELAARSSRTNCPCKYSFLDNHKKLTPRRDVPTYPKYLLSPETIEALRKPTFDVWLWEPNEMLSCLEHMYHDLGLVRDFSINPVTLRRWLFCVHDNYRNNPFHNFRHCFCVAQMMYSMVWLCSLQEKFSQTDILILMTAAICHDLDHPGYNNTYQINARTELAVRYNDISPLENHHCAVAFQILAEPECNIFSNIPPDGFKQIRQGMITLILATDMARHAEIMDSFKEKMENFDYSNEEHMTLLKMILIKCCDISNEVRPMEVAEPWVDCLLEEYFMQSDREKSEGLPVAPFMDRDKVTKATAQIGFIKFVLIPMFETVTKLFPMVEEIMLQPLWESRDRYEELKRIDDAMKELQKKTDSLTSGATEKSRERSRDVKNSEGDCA

[18] = molecular target: High affinity cAMP-specific and IBMX-insensitive 3',5'-cyclic phosphodiesterase 8A (Homo sapiens) (UniProt O60658); assay: Inhibition of PDE8A (unknown origin) using [3H]-cAMP as substrate at 10 uM after 30 mins by radiometric assay
Chain of High affinity cAMP-specific and IBMX-insensitive 3',5'-cyclic phosphodiesterase 8A (Homo sapiens) (O60658 whole entry): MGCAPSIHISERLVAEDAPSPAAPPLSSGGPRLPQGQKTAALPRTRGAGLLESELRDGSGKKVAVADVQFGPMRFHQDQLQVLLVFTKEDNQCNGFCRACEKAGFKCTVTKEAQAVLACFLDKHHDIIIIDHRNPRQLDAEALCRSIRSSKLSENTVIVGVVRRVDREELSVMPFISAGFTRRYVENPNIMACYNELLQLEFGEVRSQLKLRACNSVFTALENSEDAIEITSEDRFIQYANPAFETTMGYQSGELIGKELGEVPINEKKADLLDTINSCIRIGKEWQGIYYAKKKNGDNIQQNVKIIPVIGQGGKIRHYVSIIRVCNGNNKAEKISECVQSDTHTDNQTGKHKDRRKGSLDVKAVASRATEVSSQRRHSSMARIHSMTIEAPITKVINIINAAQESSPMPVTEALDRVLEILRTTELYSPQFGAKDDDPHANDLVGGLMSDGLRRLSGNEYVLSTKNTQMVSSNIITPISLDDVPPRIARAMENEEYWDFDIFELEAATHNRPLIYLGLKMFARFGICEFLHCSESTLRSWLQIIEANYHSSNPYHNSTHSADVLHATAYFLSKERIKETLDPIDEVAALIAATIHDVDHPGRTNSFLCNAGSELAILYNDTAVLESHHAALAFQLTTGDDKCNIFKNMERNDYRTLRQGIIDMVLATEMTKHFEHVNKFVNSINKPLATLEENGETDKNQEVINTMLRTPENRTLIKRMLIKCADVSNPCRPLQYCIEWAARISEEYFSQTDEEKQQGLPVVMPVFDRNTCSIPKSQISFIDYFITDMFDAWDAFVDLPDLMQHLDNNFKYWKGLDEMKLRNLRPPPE

[19] = molecular target: High affinity 3',5'-cyclic-AMP phosphodiesterase 7A (Homo sapiens) (UniProt Q13946); assay: Inhibition of PDE7A1 (unknown origin) using [3H]-cAMP as substrate at 10 uM after 30 mins by radiometric assay
Chain of High affinity 3',5'-cyclic-AMP phosphodiesterase 7A (Homo sapiens) (Q13946 whole entry): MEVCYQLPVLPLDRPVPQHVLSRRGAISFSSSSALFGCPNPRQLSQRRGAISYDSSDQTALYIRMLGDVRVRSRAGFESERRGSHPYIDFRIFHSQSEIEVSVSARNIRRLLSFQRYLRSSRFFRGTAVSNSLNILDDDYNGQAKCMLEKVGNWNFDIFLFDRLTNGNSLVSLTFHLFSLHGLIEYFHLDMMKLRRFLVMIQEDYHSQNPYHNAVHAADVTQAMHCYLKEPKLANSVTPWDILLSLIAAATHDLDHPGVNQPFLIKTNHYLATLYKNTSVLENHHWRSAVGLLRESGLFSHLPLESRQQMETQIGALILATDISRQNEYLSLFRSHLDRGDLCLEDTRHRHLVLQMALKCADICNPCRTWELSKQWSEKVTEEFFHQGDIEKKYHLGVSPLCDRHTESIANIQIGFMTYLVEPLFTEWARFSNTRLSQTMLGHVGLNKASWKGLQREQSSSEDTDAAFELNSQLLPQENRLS

[20] = molecular target: cGMP-specific 3',5'-cyclic phosphodiesterase (Homo sapiens) (UniProt O76074); assay: Inhibition of PDE5A (unknown origin) using [3H]-cGMP as substrate at 10 uM after 30 mins by radiometric assay
[21] = molecular target: 3',5'-cyclic-AMP phosphodiesterase 4D (Homo sapiens) (UniProt Q08499); assay: Inhibition of PDE4D (unknown origin) using cAMP as substrate at 10 uM after 30 mins
[22] = molecular target: cGMP-inhibited 3',5'-cyclic phosphodiesterase 3A (Homo sapiens) (UniProt Q14432); assay: Inhibition of PDE3A (unknown origin) using cAMP as substrate at 10 uM after 30 mins by HTRF method
[23] = molecular target: cGMP-dependent 3',5'-cyclic phosphodiesterase (Homo sapiens) (UniProt O00408); assay: Inhibition of PDE2A (unknown origin) using cAMP as substrate at 10 uM after 30 mins by HTRF method
Chain of cGMP-dependent 3',5'-cyclic phosphodiesterase (Homo sapiens) (O00408 whole entry): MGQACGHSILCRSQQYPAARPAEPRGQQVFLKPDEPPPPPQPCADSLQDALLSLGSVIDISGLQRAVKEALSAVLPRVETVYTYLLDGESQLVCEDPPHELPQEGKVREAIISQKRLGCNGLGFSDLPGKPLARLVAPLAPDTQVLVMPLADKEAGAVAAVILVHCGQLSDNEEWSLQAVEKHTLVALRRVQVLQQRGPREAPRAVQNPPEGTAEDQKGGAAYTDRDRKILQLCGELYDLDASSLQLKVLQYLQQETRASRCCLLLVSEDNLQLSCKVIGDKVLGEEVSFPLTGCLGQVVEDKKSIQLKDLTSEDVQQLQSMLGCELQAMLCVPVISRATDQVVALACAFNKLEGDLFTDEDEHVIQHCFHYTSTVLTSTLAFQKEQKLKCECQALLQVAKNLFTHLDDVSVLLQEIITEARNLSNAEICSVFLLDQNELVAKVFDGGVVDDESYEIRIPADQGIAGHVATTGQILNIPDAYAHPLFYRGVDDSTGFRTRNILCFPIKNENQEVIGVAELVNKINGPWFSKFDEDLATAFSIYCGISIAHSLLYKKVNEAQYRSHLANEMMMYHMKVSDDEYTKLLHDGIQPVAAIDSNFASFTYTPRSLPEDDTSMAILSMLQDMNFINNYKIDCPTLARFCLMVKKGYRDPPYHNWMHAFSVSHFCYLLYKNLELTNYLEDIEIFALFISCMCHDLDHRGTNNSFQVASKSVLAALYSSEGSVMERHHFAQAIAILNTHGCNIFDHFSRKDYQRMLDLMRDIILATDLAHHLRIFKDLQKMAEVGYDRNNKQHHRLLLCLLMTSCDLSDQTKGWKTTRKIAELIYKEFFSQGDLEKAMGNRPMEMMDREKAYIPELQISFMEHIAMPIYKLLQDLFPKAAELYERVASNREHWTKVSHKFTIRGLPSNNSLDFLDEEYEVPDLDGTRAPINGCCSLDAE

Rattus norvegicus = assay: Antipsychotic activity in Sprague-Dawley rat psychosis model assessed as inhibition of MK-801-induced hyperlocomotion at 1 mg/kg, ip administered 5 mins prior to MK-801-challenge measured after 15 mins up to 1 hr; format: functional; settings: route intraperitoneal

Structure (SMILES)	remaining at 1 h [1]	remaining at 1 h [2]	pIC50 [3]	Kp at 0.5 h [4]	concentration at 0.5 h [5]	concentration at 0.5 h [6]	other results
Cc1nc(C2CNC2)n2c1sc1cc(OCc3ccc4ccccc4n3)ccc12	80%	100%	6.80	–	–	–	–
Cc1nc([C@]23COC[C@H]2C3)n2c1sc1cc(OCc3ccc4ccccc4n3)ccc12	70%	44%	8.29	1.86	394 ng/mL	732 ng/g	–
CC(=O)N1CCC(c2nc(C)c3sc4cc(OCc5ccc6ccccc6n5)ccc4n23)CC1	48%	76%	8.05	0.42	396 ng/mL	165 ng/g	–
Cc1nc(-c2ccncc2)n2c1sc1cc(OCc3ccc4ccccc4n3)ccc12	22%	5%	8.31	–	–	–	Ratio IC50 (Homo sapiens [7]): > 500; Ratio IC50 (Homo sapiens [8]): > 500; Ratio IC50 (Homo sapiens [9]): > 500; Ratio IC50 (Homo sapiens [10]): > 500; Ratio IC50 (Homo sapiens [11]): > 500; Ratio IC50 (Homo sapiens [12]): > 500; Ratio IC50 (Homo sapiens [13]): > 500; Ratio IC50 (Homo sapiens [14]): > 500; Ratio IC50 (Homo sapiens [15]): > 500; inhibition [16]: 21.4%; inhibition [17]: 22.8%; inhibition [18]: 0%; inhibition [19]: 42.3%; inhibition [20]: 34%; inhibition [21]: 27.1%; inhibition [22]: 26%; inhibition [23]: 67.2%
Cc1nc([C@@]23COC[C@@H]2C3)n2c1sc1cc(OCc3ccc4ccccc4n3)ccc12	60%	37%	8.16	2.62	164 ng/mL	430 ng/g	–
Cc1nc(-c2ccnnc2)n2c1sc1cc(OCc3ccc4ccccc4n3)ccc12	3%	30%	7.86	–	–	–	–
c1ccc2nc(COc3ccc4c(c3)sc3nnc(-c5ccncc5)n34)ccc2c1	–	–	6.18	–	–	–	–
Cc1nc(C)c(-c2nc(C)c3sc4cc(OCc5ccc6ccccc6n5)ccc4n23)s1	20%	3%	9.05	–	–	–	–
Cc1nc(C2CCOC2)n2c1sc1cc(OCc3ccc4ccccc4n3)ccc12 (configuration not stated)	37%	45%	7.73	–	–	–	–
CC(=O)N1CC(c2nc(C)c3sc4cc(OCc5ccc6ccccc6n5)ccc4n23)C1	42%	50%	8.17	0.45	137 ng/mL	62 ng/g	–
Cc1cc(-c2nc(C)c3sc4cc(OCc5ccc6ccccc6n5)ccc4n23)ccn1	19%	5%	8.06	–	–	–	–
Cc1nc2sc3cc(OCc4ccc5ccccc5n4)ccc3n2c1-c1ccncc1	–	–	6.45	–	–	–	–
Cc1nc2n(c(=O)c1CCN1CCC(c3noc4cc(F)ccc34)CC1)CCCC2 [RISPERIDONE]	–	–	–	–	–	–	inhibition in vivo at 1 mg/kg (Rattus norvegicus): 72%
